Experimental findings from patent US20040121029A1, “Antiulcer herbal composition(s)” (Council of Scientific & Industrial Research, priority 2002, published 2004) are described below.

Structures are written as SMILES. Marks after values point to notes of the source that are not given here.

The subject of experiment [1] is cold restraint stress (CRS) - induced gastric ulcers. The experiment can be described thus: Cold restraint stress (CRS) - induced ulcers in rats. The experiment is classed as in vivo. To be noted: dose 50. As to the method: 3. Cold restraint stress—induced ulcers: Rats were strapped on a wooden plank and kept them at 4-6° C. for 2 hours. The animals were then sacrificed by cervical dislocation and ulcers were scored on the dissected stomach.

Experiment [2] relates to pylorus ligation (PL) - induced gastric ulcers. The experiment can be described thus: Pylorus ligation (PL) - induced ulcers in rats. To be noted: dose 50. The experiment is classed as in vivo. As to the method: 4. Pylorus ligated induced ulcers: Animals were anaesthetized using pentobarbitione (35 mg/kg, i.p.), the abdomen was opened and pylorus ligation was done without causing any damage to its blood supply. The stomach was replaced carefully and the abdomen wall was closed in 2 layers with interrupted sutures. The animals were deprived of water during postoperative period. After 4 hours stomach were dissected out and contents were collected and ulcer index was calculated.

For `CNC(=C[N+](=O)[O-])NCCSCc1ccc(CN(C)C)o1` [Ranitidine], in experiment [1], the “CRS - induced ulcers % Curative Ratio” value turned out to be 79.68%. For the same compound, the “CRS - induced ulcers Ulcer Index” value in experiment [1] (mean ± SEM, six rats) was 5.2 ± 1.1^c. For the same compound, the “PL - induced ulcers % Curative Ratio” value in experiment [2] is 64.82%. The “PL - induced ulcers Ulcer Index” value in experiment [2] (mean ± SEM, six rats) is given as 5.1 ± 1.3^b.
